Source: PubChem BioAssay AID272 (DTP/NCI, 2004)
“And” between values parts separate entries of the source, which are not always exact repeats. Equal entries are not always repeated. Results filed as inconclusive are left out.

Tested on: Lewis lung carcinoma i.m., BDF1 mice, T/C %
Assay: NCI In Vivo Anticancer Drug Screen. Data for tumor model Lewis Lung Carcinoma (intramuscular) in B6D2F1 (BDF1) mice
Description: The antitumor activity of compounds was measured in mice bearing transplantable tumors. Survival or tumor size were measured and the results are expressed as the measurement made in the treated group (T) divided by the measurement made in the vehicle treated control group (C). The tumor model used in this assay is Lewis Lung Carcinoma (intramuscular) in B6D2F1 (BDF1) mice

Question: `O=NN(CCCl)C(=O)Nc1ccc(CCCl)cc1` was tested. Which T/C (endpoint: median survival time, dose: 3.0 mg/kg/injection, schedule: Q07DX003 (ip), vehicle: Klucel (hydroxypropylcellulose) (HPC), higher = longer survival) did it give?
Answer: 110 % of control

Question: And the T/C (endpoint: median survival time, dose: 5.0 mg/kg/injection, schedule: Q07DX003 (ip), vehicle: Klucel (hydroxypropylcellulose) (HPC), higher = longer survival)?
Answer: 116 % of control

Question: And the T/C (endpoint: median survival time, dose: 8.4 mg/kg/injection, schedule: Q07DX003 (ip), vehicle: Klucel (hydroxypropylcellulose) (HPC), higher = longer survival)?
Answer: 108 % of control

Question: And the T/C (endpoint: median survival time, dose: 14.0 mg/kg/injection, schedule: Q07DX003 (ip), vehicle: Klucel (hydroxypropylcellulose) (HPC), higher = longer survival)?
Answer: 116 % of control

Question: What about the T/C (endpoint: median survival time, dose: 23.0 mg/kg/injection, schedule: Q07DX003 (ip), vehicle: Klucel (hydroxypropylcellulose) (HPC), higher = longer survival) of the same compound?
Answer: 95 % of control

Question: How did the T/C (endpoint: median survival time, dose: 6.25 mg/kg/injection, schedule: Q01DX011 (ip), vehicle: saline, higher = longer survival) turn out when `CCCCCCCCCCCC[N+](C)(C)C` (tested in a mixture with another compound) was run?
Answer: 110 % of control

Question: Which T/C (endpoint: median survival time, dose: 0.25 mg/kg/injection, schedule: Q01DX011 (ip), vehicle: water, higher = longer survival) does the source give for `COc1cccc2c1C(=O)c1c(O)c3c(c(O)c1C2=O)C[C@@](O)(C(C)=O)C[C@@H]3OC1CC(N)C(O)C(C)O1` (stereo partly drawn) here?
Answer: 93 % of control

Question: What about the T/C (endpoint: median survival time, dose: 0.5 mg/kg/injection, schedule: Q01DX011 (ip), vehicle: water, higher = longer survival) of the same compound?
Answer: 106 % of control and 117 % of control

Question: And the T/C (endpoint: median survival time, dose: 1.0 mg/kg/injection, schedule: Q01DX011 (ip), vehicle: water, higher = longer survival)?
Answer: 107 % of control

Question: Which T/C (endpoint: mean tumor weight (est.), dose: 5.0 mg/kg/injection, schedule: Q01DX011 (ip), vehicle: saline with Tween-80, higher = larger tumour) does the source give for `O=C(CBr)OCCOc1ccccc1` here?
Answer: 85 % of control

Question: What about the T/C (endpoint: mean tumor weight (est.), dose: 10.0 mg/kg/injection, schedule: Q01DX011 (ip), vehicle: saline with Tween-80, higher = larger tumour) of the same compound?
Answer: 93 % of control

Question: What about the T/C (endpoint: mean tumor weight (est.), dose: 20.0 mg/kg/injection, schedule: Q01DX011 (ip), vehicle: saline with Tween-80, higher = larger tumour) of the same compound?
Answer: 85 % of control

Question: What about the T/C (endpoint: median survival time, dose: 5.0 mg/kg/injection, schedule: Q01DX011 (ip), vehicle: saline with Tween-80, higher = longer survival) of the same compound?
Answer: 88 % of control

Question: And the T/C (endpoint: median survival time, dose: 10.0 mg/kg/injection, schedule: Q01DX011 (ip), vehicle: saline with Tween-80, higher = longer survival)?
Answer: 104 % of control

Question: And the T/C (endpoint: median survival time, dose: 20.0 mg/kg/injection, schedule: Q01DX011 (ip), vehicle: saline with Tween-80, higher = longer survival)?
Answer: 108 % of control

Question: With `O=C(CCBr)N1CCN(C(=O)CCBr)CC1` as the compound, how does the T/C (endpoint: mean tumor weight, dose: 50.0 mg/kg/injection, schedule: Q01DX011 (ip), vehicle: steriod suspending solution, higher = larger tumour) read?
Answer: 73 % of control

Question: And the T/C (endpoint: mean tumor weight, dose: 100.0 mg/kg/injection, schedule: Q01DX011 (ip), vehicle: steriod suspending solution, higher = larger tumour)?
Answer: 73 % of control

Question: What about the T/C (endpoint: mean tumor weight, dose: 200.0 mg/kg/injection, schedule: Q01DX011 (ip), vehicle: steriod suspending solution, higher = larger tumour) of the same compound?
Answer: 37 % of control

Question: Which T/C (endpoint: median survival time, dose: 25.0 mg/kg/injection, schedule: Q01DX011 (ip), vehicle: water, higher = longer survival) does the source give for `O=C1NC(O)CCN1C1OC(CO)C(O)C1O` (stereo not drawn) here?
Answer: 89 % of control

Question: What about the T/C (endpoint: median survival time, dose: 50.0 mg/kg/injection, schedule: Q01DX011 (ip), vehicle: water, higher = longer survival) of the same compound?
Answer: 93 % of control

Question: And the T/C (endpoint: median survival time, dose: 400.0 mg/kg/injection, schedule: Q01DX011 (ip), vehicle: water, higher = longer survival)?
Answer: 116 % of control

Question: What does the source list for `COc1cc([C@@H]2c3cc4c(c(O)c3C[C@H]3COC(=O)[C@@H]32)OCO4)cc(OC)c1OC`?
Answer: T/C (endpoint: mean tumor weight (est.), dose: 0.5 mg/kg/injection, schedule: Q01DX011 (ip), vehicle: Klucel (hydroxypropylcellulose) (HPC), higher = larger tumour): 106 % of control; T/C (endpoint: mean tumor weight (est.), dose: 2.0 mg/kg/injection, schedule: Q01DX011 (ip), vehicle: Klucel (hydroxypropylcellulose) (HPC), higher = larger tumour): 93 % of control

Question: Which T/C (endpoint: mean tumor weight (est.), dose: 3.12 mg/kg/injection, schedule: Q01DX011 (ip), vehicle: saline with Tween-80, higher = larger tumour) does the source give for `Clc1ccc2nc(CI)c(CI)nc2c1` here?
Answer: 78 % of control

Question: And the T/C (endpoint: mean tumor weight (est.), dose: 6.25 mg/kg/injection, schedule: Q01DX011 (ip), vehicle: saline with Tween-80, higher = larger tumour)?
Answer: 82 % of control

Question: And the T/C (endpoint: mean tumor weight (est.), dose: 12.5 mg/kg/injection, schedule: Q01DX011 (ip), vehicle: saline with Tween-80, higher = larger tumour)?
Answer: 89 % of control

Question: And the T/C (endpoint: median survival time, dose: 3.12 mg/kg/injection, schedule: Q01DX011 (ip), vehicle: saline with Tween-80, higher = longer survival)?
Answer: 94 % of control

Question: What about the T/C (endpoint: median survival time, dose: 6.25 mg/kg/injection, schedule: Q01DX011 (ip), vehicle: saline with Tween-80, higher = longer survival) of the same compound?
Answer: 98 % of control

Question: What about the T/C (endpoint: median survival time, dose: 12.5 mg/kg/injection, schedule: Q01DX011 (ip), vehicle: saline with Tween-80, higher = longer survival) of the same compound?
Answer: 88 % of control

Question: Which results are given for `CCN1/C(=C/C(C)=C/c2sc3ccccc3[n+]2CC)Sc2ccccc21`?
Answer: T/C (endpoint: mean tumor weight (est.), dose: 50.0 micrograms/kg/injection, schedule: Q01DX011 (ip), vehicle: saline with Tween-80, higher = larger tumour): 88 % of control; T/C (endpoint: mean tumor weight (est.), dose: 100.0 micrograms/kg/injection, schedule: Q01DX011 (ip), vehicle: saline with Tween-80, higher = larger tumour): 74 % of control; T/C (endpoint: median survival time, dose: 50.0 micrograms/kg/injection, schedule: Q01DX011 (ip), vehicle: saline with Tween-80, higher = longer survival): 91 % of control; T/C (endpoint: median survival time, dose: 100.0 micrograms/kg/injection, schedule: Q01DX011 (ip), vehicle: saline with Tween-80, higher = longer survival): 87 % of control
